# Source: patent US12577234B2, “Antagonists of the muscarinic acetylcholine receptor M4” (Vanderbilt University, priority 2017, dated 2026)
# Biological target: T1, human mAChR M4 (Homo sapiens, UniProt P08173)
# T1 construct: expressed in transfected cells; host or cells: CHO-K1 (ATCC), stably co-expressing chimeric G protein Gqi5
# T1 sequence (P08173 1-479): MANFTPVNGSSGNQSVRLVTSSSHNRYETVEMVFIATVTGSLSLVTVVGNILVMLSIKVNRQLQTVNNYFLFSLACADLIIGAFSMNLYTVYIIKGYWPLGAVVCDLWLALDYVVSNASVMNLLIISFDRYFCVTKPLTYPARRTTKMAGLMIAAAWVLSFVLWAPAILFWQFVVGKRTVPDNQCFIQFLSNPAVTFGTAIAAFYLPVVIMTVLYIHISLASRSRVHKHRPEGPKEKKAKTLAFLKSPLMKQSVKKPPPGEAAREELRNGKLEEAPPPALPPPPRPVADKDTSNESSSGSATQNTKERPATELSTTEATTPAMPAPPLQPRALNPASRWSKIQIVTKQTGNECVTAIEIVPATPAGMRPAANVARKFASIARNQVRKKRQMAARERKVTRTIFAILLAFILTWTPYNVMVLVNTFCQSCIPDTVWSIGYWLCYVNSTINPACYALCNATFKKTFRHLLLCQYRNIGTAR
# Test: mAChR M4 cell-based functional assay (calcium mobilization, EC80 acetylcholine), human M4
# Conditions: Table 9; for Emin: human M4, % ACh maximum at 30 μM
# Protocol: Human or rat M4 cDNA, along with the chimeric G protein Gqi5, were transfected into Chinese hamster ovary (CHO-K1) cells purchased from the American Type Culture Collection using Lipofectamine2000. M4/Gqi5/CHO cells were grown in Ham's F-12 medium containing 10% heat-inactivated fetal bovine serum (FBS), 20 mM HEPES, 500 μg/mL G418 sulfate, and 200 μg/mL Hygromycin B.
# For high throughput measurement of agonist-evoked increases in intracellular calcium, CHO-K1 cells stably expressing muscarinic receptors were plated in growth medium lacking G418 and hygromycin at 15,000 cells/20 μL/well in Greiner 384-well black-walled, tissue culture (TC)-treated, clear-bottom plates (VWR). Cells were incubated overnight at 37° C. and 5% CO2. […] Compound master plates were formatted in a 10 point concentration-response curve (CRC) format (1:3 dilutions) in 100% DMSO with a starting concentration of 10 or 1 mM using a BRAVO liquid handler (Agilent). Test compound CRCs were then transferred to daughter plates (240 nL) using the Echo acoustic plate reformatter (Labcyte, Sunnyvale, CA) and then diluted into assay buffer (40 μL) to a 2× stock using a Thermo Fisher Combi (Thermo Fisher Scientific, Waltham, MA).
# Calcium flux was measured using the Functional Drug Screening System (FDSS) 6000 or 7000 (Hamamatsu Corporation, Tokyo, Japan) as an increase in the fluorescent static ratio. Compounds were applied to cells (20 μL, 2×) using the automated system of the FDSS at 2 seconds into the protocol and the data were collected at 1 Hz. […] Agonist activity was analyzed as a concentration-dependent increase in calcium mobilization upon compound addition. Positive allosteric modulator activity was analyzed as a concentration-dependent increase in the EC20 acetylcholine response. Antagonist activity was analyzed as a concentration-dependent decrease in the EC80 acetylcholine response; for the purposes of the tables herein, an IC50 (inhibitory concentration 50) was calculated as a concentration-dependent decrease of the response elicited by an EC80 concentration of acetylcholine. Concentration-response curves were generated using a four-parameter logistical equation in XLFit curve fitting software (IDBS, Bridgewater, NJ) for Excel (Microsoft, Redmond, WA) or Prism (GraphPad Software, Inc., San Diego, CA) or the Dotmatics software platform (Dotmatics, Bishop's Stortford, UK).
# [1] = M4/Gqi5/CHO-K1 cells, decrease of EC80 acetylcholine response
SMILES,IC50 [1] [µM],Emin [%],IC50 (μM) [µM]
"Cc1nn(C)cc1-c1ccc(O[C@@H]2C[C@@H]3CN(CCC(C)(C)C)C[C@@H]3C2)nn1 [Compound 48, (3aR,5r,6aS)-2-(3,3-dimethylbutyl)-5-[6-(1,3-dimethylpyrazol-4-yl)pyridazin-3-yl]oxy-3,3a,4,5,6,6a-hexahydro-1H-cyclopenta[c]pyrrole]",0.361,3.79,–
"Cc1nn(C)cc1-c1ccc(O[C@@H]2C[C@@H]3CN(CC4CCCCC4)C[C@@H]3C2)nn1 [Compound 49, (3aR,5r,6aS)-2-(cyclohexylmethyl)-5-[6-(1,3-dimethylpyrazol-4-yl)pyridazin-3-yl]oxy-3,3a,4,5,6,6a-hexahydro-1H-cyclopenta[c]pyrrole]",0.272,3.17,–
"Cc1nn(C)cc1-c1ccc(O[C@@H]2C[C@@H]3CN(CC4CCOCC4)C[C@@H]3C2)nn1 [Compound 50, (3aR,5r,6aS)-5-[6-(1,3-dimethylpyrazol-4-yl)pyridazin-3-yl]oxy-2-(tetrahydropyran-4-ylmethyl)-3,3a,4,5,6,6a-hexahydro-1H-cyclopenta[c]pyrrole]",6.03,15.6,–
"Cc1nn(C)cc1-c1ccc(O[C@@H]2C[C@@H]3CN(CC4CCCOC4)C[C@@H]3C2)nn1 (stereo partly drawn) [Compound 51, (3aR,5r,6aS)-5-[6-(1,3-dimethylpyrazol-4-yl)pyridazin-3-yl]oxy-2-(tetrahydropyran-3-ylmethyl)-3,3a,4,5,6,6a-hexahydro-1H-cyclopenta[c]pyrrole]",7.85,19.8,–
"Cc1cccnc1CN1C[C@H]2C[C@@H](Oc3ccc(-c4cn(C)nc4C)nn3)C[C@H]2C1 [Compound 52, (3aR,5r,6aS)-5-[6-(1,3-dimethylpyrazol-4-yl)pyridazin-3-yl]oxy-2-[(3-methyl-2-pyridyl)methyl]-3,3a,4,5,6,6a-hexahydro-1H-cyclopenta[c]pyrrole]",–,26.4,> 10
"Fc1ccc(Cl)c(-c2ccc(O[C@@H]3C[C@@H]4CN(CC5CC6C=CC5C6)C[C@@H]4C3)nn2)c1 (stereo partly drawn) [Compound 53, (3aR,5r,6aS)-2-(5-bicyclo[2.2.1]hept-2-enylmethyl)-5-[6-(2-chloro-5-fluoro-phenyl)pyridazin-3-yl]oxy-3,3a,4,5,6,6a-hexahydro-1H-cyclopenta[c]pyrrole]",0.1,3.21,–
"CC(C)(C)CCN1C[C@H]2C[C@@H](Oc3ccc(-c4cc(F)ccc4Cl)nn3)C[C@H]2C1 [Compound 54, (3aR,5r,6aS)-5-[6-(2-chloro-5-fluoro-phenyl)pyridazin-3-yl]oxy-2-(3,3-dimethylbutyl)-3,3a,4,5,6,6a-hexahydro-1H-cyclopenta[c]pyrrole]",0.222,3.07,–
"CC(CN1C[C@H]2C[C@@H](Oc3ccc(-c4cc(F)ccc4Cl)nn3)C[C@H]2C1)C(C)(C)C (stereo partly drawn) [Compound 55, (3aR,5r,6aS)-5-[6-(2-chloro-5-fluoro-phenyl)pyridazin-3-yl]oxy-2-(2,3,3-trimethylbutyl)-3,3a,4,5,6,6a-hexahydro-1H-cyclopenta[c]pyrrole]",0.43,3.60,–
"Fc1ccc(Cl)c(-c2ccc(O[C@@H]3C[C@@H]4CN(CC5CCCCC5)C[C@@H]4C3)nn2)c1 [Compound 56, (3aR,5r,6aS)-5-[6-(2-chloro-5-fluoro-phenyl)pyridazin-3-yl]oxy-2-(cyclohexylmethyl)-3,3a,4,5,6,6a-hexahydro-1H-cyclopenta[c]pyrrole]",0.154,3.63,–
"Fc1ccc(Cl)c(-c2ccc(O[C@@H]3C[C@@H]4CN(CC5CCCOC5)C[C@@H]4C3)nn2)c1 (stereo partly drawn) [Compound 57, (3aR,5r,6aS)-5-[6-(2-chloro-5-fluoro-phenyl)pyridazin-3-yl]oxy-2-(tetrahydropyran-3-ylmethyl)-3,3a,4,5,6,6a-hexahydro-1H-cyclopenta[c]pyrrole]",3.07,6.99,–
